Results taken from paper PMC10385824, “Antiproliferative and Tubulin-Destabilising Effects of 3-(Prop-1-en-2-yl)azetidin-2-Ones and Related Compounds in MCF-7 and MDA-MB-231 Breast Cancer Cells” (Pharmaceuticals, 2023).

Tests used:
U251 = assay: NCI-60 SRB screen, CNS cancer; type: cell-based, human; settings: Homo sapiens, U-251; U251; five dose 0.01–100 µM, 48 h; read-out: GI50
IGROV1 = assay: NCI-60 SRB screen, ovarian cancer; type: cell-based, human; settings: Homo sapiens, IGROV-1; IGROV1; five dose 0.01–100 µM, 48 h; read-out: GI50
SR = assay: NCI-60 SRB screen, leukemia; type: cell-based, human; settings: Homo sapiens, five dose 0.01–100 µM, 48 h, read-out: GI50
SF539 = assay: NCI-60 SRB screen, CNS cancer; type: cell-based, human; settings: Homo sapiens, SF-539; SF539; five dose 0.01–100 µM, 48 h; read-out: GI50
LOX IMVI = assay: NCI-60 SRB screen, melanoma; type: cell-based, human; settings: Homo sapiens, five dose 0.01–100 µM, 48 h, read-out: GI50
SN12C = assay: NCI-60 SRB screen, renal cancer; type: cell-based, human; settings: Homo sapiens, five dose 0.01–100 µM, 48 h, read-out: GI50
SK-OV-3 = assay: NCI-60 SRB screen, ovarian cancer; type: cell-based, human; settings: Homo sapiens; SK-OV-3; five dose 0.01–100 µM, 48 h; read-out: GI50
SK-MEL-28 = assay: NCI-60 SRB screen, melanoma; type: cell-based, human; settings: Homo sapiens; SK-MEL-28; five dose 0.01–100 µM, 48 h; read-out: GI50
A549/ATCC = assay: NCI-60 SRB screen, non-small cell lung cancer; type: cell-based, human; settings: Homo sapiens; A549/ATCC; five dose 0.01–100 µM, 48 h; read-out: GI50
COLO 205 = assay: NCI-60 SRB screen, colon cancer; type: cell-based, human; settings: Homo sapiens; COLO 205; five dose 0.01–100 µM, 48 h; read-out: GI50
KM12 = assay: NCI-60 SRB screen, colon cancer; type: cell-based, human; settings: Homo sapiens; KM12; five dose 0.01–100 µM, 48 h; read-out: GI50
MDA-MB-231/ATCC = assay: NCI-60 SRB screen, breast cancer; type: cell-based, human; settings: Homo sapiens, 48 h; for GI50: MDA-MB-231/ATCC, five dose 0.01–100 µM, read-out: GI50
BT-549 = assay: NCI-60 SRB screen, breast cancer; type: cell-based, human; settings: Homo sapiens; BT-549; five dose 0.01–100 µM, 48 h; read-out: GI50
OVCAR-8 = assay: NCI-60 SRB screen, ovarian cancer; type: cell-based, human; settings: Homo sapiens; OVCAR-8; five dose 0.01–100 µM, 48 h; read-out: GI50
CCRF-CEM = assay: NCI-60 SRB screen, leukemia; type: cell-based; settings: Homo sapiens, five dose 0.01–100 µM, 48 h, read-out: GI50
NCI-H226 = assay: NCI-60 SRB screen, non-small cell lung cancer; type: cell-based; settings: Homo sapiens; NCI-H226; five dose 0.01–100 µM, 48 h; read-out: GI50
HCT-2998 = assay: NCI-60 SRB screen, colon cancer; type: cell-based, human; settings: Homo sapiens; HCT-2998; five dose 0.01–100 µM, 48 h; read-out: GI50
CAKI-1 = assay: NCI-60 SRB screen, renal cancer; type: cell-based, human; settings: Homo sapiens; CAKI-1; five dose 0.01–100 µM, 48 h; read-out: GI50
RXF 393 = assay: NCI-60 SRB screen, renal cancer; type: cell-based, human; settings: Homo sapiens; RXF 393; five dose 0.01–100 µM, 48 h; read-out: GI50
HOP-92 = assay: NCI-60 SRB screen, non-small cell lung cancer; type: cell-based, human; settings: Homo sapiens; HOP-92; five dose 0.01–100 µM, 48 h; read-out: GI50
SW-620 = assay: NCI-60 SRB screen, colon cancer; type: cell-based, human; settings: Homo sapiens; SW-620; five dose 0.01–100 µM, 48 h; read-out: GI50
HL-60(TB) = assay: NCI-60 SRB screen, leukemia; type: cell-based, human; settings: Homo sapiens
786-0 = assay: NCI-60 SRB screen, renal cancer; type: cell-based, human; settings: Homo sapiens; 786-0; five dose 0.01–100 µM, 48 h; read-out: GI50
MDA-MB-435 = assay: NCI-60 SRB screen, melanoma; type: cell-based, human; settings: Homo sapiens; MDA-MB-435; five dose 0.01–100 µM, 48 h; read-out: GI50
RPMI-8226 = assay: NCI-60 SRB screen, leukemia; type: cell-based, human; settings: Homo sapiens; RPMI-8226; five dose 0.01–100 µM, 48 h; read-out: GI50
HT29 = assay: NCI-60 SRB screen, colon cancer; type: cell-based, human; settings: Homo sapiens, HT-29; HT29; five dose 0.01–100 µM, 48 h; read-out: GI50
ACHN = assay: NCI-60 SRB screen, renal cancer; type: cell-based, human; settings: Homo sapiens, five dose 0.01–100 µM, 48 h, read-out: GI50
[1] = system: purified bovine brain tubulin; assay: Tubulin polymerization assay (light scattering, BK006 kit); type: biochemical; settings: compound at 10 μM; relative to vehicle
Procedure, shortened: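 Compounds tested at 10 µM against vehicle (1% DMSO or EtOH) with bovine brain tubulin, 3 mg/mL, in pH 6.9 PIPES buffer containing 1 mM GTP and 10% glycerol, 37 °C. Light scattering at 340 nm tracked microtubule formation; average of two independent runs reported.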

[2] = HL-60(TB), five dose 0.01–100 µM, 48 h

| Structure (SMILES) | GI50 (U251) | GI50 (IGROV1) | GI50 (SR) | GI50 (SF539) | GI50 (LOX IMVI) | GI50 (SN12C) | GI50 (SK-OV-3) | GI50 (A549/ATCC) | GI50 (COLO 205) | GI50 (KM12) | GI50 (MDA-MB-231/ATCC) | GI50 (BT-549) | GI50 (OVCAR-8) | GI50 (CCRF-CEM) | GI50 (HCT-2998) | GI50 (CAKI-1) | GI50 (RXF 393) | GI50 (HOP-92) | GI50 (SW-620) | GI50 (HL-60(TB); [2]) | also measured |
| --- | --- | --- | --- | --- | --- | --- | --- | --- | --- | --- | --- | --- | --- | --- | --- | --- | --- | --- | --- | --- | --- |
| COc1ccc(C2C(C(C)C)C(=O)N2c2cc(OC)c(OC)c(OC)c2)cc1OP(=O)(O)O (stereo not shown) [15b, 5-(3-Isopropyl-1-(3,4,5-trimethoxyphenyl)-4-oxoazetidin-2-yl)-2-methoxyphenyl dihydrogen phosphate] | 276 nM | 434 nM | 324 nM | 132 nM | 328 nM | 463 nM | 416 nM | 353 nM | 1230 nM | 180 nM | 215 nM | 411 nM | 300 nM | 356 nM | 452 nM | 320 nM | 282 nM | 11200 nM | 373 nM | 305 nM | GI50 (SK-MEL-28): 389 nM; GI50 (NCI-H226): > 100000 nM; GI50 (786-0): 439 nM; GI50 (MDA-MB-435): 73.8 nM; GI50 (RPMI-8226): 478 nM; GI50 (HT29): 3470 nM; GI50 (ACHN): 359 nM |
| C=C(C)C1C(=O)N(c2cc(OC)c(OC)c(OC)c2)C1c1ccc(OC)cc1 (stereo not shown) [9h, 4-(4-Methoxyphenyl)-1-(3,4,5-trimethoxyphenyl)-3-(prop-1-en-2-yl)azetidin-2-one] | 36 nM | 49.9 nM | 38.5 nM | 35.2 nM | 38.8 nM | 50.3 nM | 38.1 nM | 40.8 nM | 27.1 nM | 34 nM | 32.2 nM | 32.9 nM | 37.3 nM | 37.5 nM | 30.7 nM | 83.1 nM | 37.5 nM | 71.9 nM | 42.4 nM | 33.1 nM | IC50 (MDA-MB-231/ATCC; MDA-MB-231, obtained from NCI, five concentrations 0.01–100 μM, read-out: Antiproliferative Activity IC50): 31.3 nM; Fold Reduction in Vmax [1]: 1.81; GI50 (HL-60(TB); HL-60, NCI screen): < 34 nM; GI50 (786-0): 44.2 nM; GI50 (MDA-MB-435): 294 nM; GI50 (RPMI-8226): 39.9 nM; GI50 (HT29): 35.4 nM; GI50 (ACHN): 64.3 nM |
